Laboratory results from USRE30241E, “Esters of 3-(hydroxy or hydroxymethyl)-4-hydroxyphenyl aminomethyl ketones” (Sterling Drug Inc., priority 1970, dated 1980).
Read-outs that look alike come from different tables or passages of the source.

What was measured:
[1] = system: carbachol- or histamine-induced bronchoconstriction; experiment: Bronchodilator Test Method I, anesthetized dog, intraduodenal activity; type: in vivo; conditions: Canis lupus familiaris, read-out: Bronchodilation; for inhibition in vivo at 0.035 mg/kg: 35 mcg/kg (salt) intraduodenal; for inhibition in vivo at 0.07 mg/kg: 70 mcg/kg (salt) intraduodenal; for inhibition in vivo at 0.28 mg/kg: 280 mcg/kg (salt) intraduodenal
In short: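 Pentobarbital-anesthetized (30 mg/kg i.v.) open-chest dogs of 9-18 kg, artificially ventilated; airway pressure recorded via tracheal cannula transducer. Test solution injected intraduodenally; from 5 min, i.v. carbachol (4-6 μg/kg) or histamine diphosphate (35-45 μg/kg) challenges every 30-60 min gauged degree and duration of bronchodilation.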

[2] = system: heart rate; experiment: Cardiovascular studies: effect on the heart rate in the anesthetized dog; type: in vivo
In short: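 Anesthetized dogs, mostly spontaneously breathing, some open-chest, given rapid intravenous injections. Heart rate by electrocardiograph with blood pressure recorded simultaneously, every 0.5-1 minute for 10 minutes then every 2-5 minutes until recovery; several doses or compounds sometimes tested alternately in one dog.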

[3] = Stability of test solutions; conditions: ethylenediaminetetraacetic acid added; distilled water or saline solutions
[4] = system: guinea pig bronchioles constricted by carbachol; experiment: Bronchodilator Test Method II, in vitro perfused guinea pig lung
Description: In this method bronchodilator activity in vitro was determined by testing the effect of graded doses of the test compounds on guinea pig bronchioles constricted by carbachol, using the technique reported by Sollman and von Oettingen, Proc. Soc, Exp. Biol. Med., 25,692 (1928) as modified by Tainter, Pedden, and James, J. Pharm. Exp. Ther., 51, 371 (1934) and by Luduena, von Euler, Tullar, and Lands, Arch. intern. Pharmacol., III, 392 (1957).

[5] = system: carbachol- or histamine-induced bronchoconstriction; experiment: Bronchodilator Test Method I, anesthetized dog, intravenous activity; type: in vivo; conditions: Canis lupus familiaris, 1 min, 1-2 min, read-out: Bronchodilatation
In short: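 Pentobarbital-anesthetized (30 mg/kg i.v.), open-chest, artificially ventilated dogs were given i.v. carbachol (4-6 µg/kg) or histamine diphosphate (35-45 µg/kg). Test compound was given i.v. mixed with, after, or 1-10 min before the constrictor.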

[6] = system: diastolic blood pressure; experiment: Effect on diastolic blood pressure in the anesthetized dog; type: in vivo
Description: The effect of a rapid intravenous injection on the heart rate the heart rate was conducted in anesthetized dogs under normal respiration. A few open-chest dogs were also tested. Increase in heart rate was measured by using an electrocardiograph attached to the dog. Readings were taken every 0.5-1 minute for the first 10 minutes and every 2-5 minutes thereafter until recovery. In some cases, several doses and more than one compound were tested alternately in the same dog. The blood pressure effect was simultaneously recorded.

Work on `CC(C)(C)NCC(O)c1ccc(O)c(O)c1` (stereo not drawn) [Ref. Cpd. I, 3,4-Dihydroxy-alpha-(tert-butylaminomethyl)benzyl alcohol, reference compound] yielded an inhibition in vivo at 0.035 mg/kg ([1]; 10 min, 10 min) of 34%, an inhibition in vivo at 0.07 mg/kg ([1]; 10 min, 10 min) of 40% and an inhibition in vivo at 0.28 mg/kg ([1]; 10 min, 10 min) of 66%. For the same compound, the inhibition in vivo at 0.035 mg/kg ([1]; 0.5 h, 30 min) was 41%, the inhibition in vivo at 0.07 mg/kg ([1]; 0.5 h, 30 min) was 60% and the inhibition in vivo at 0.28 mg/kg ([1]; 0.5 h, 30 min) was 59%. The inhibition in vivo at 0.035 mg/kg ([1]; 1 h, 60 min) was 44%, the inhibition in vivo at 0.07 mg/kg ([1]; 1 h, 60 min) was 35% and the inhibition in vivo at 0.28 mg/kg ([1]; 1 h, 60 min) was 46%. It also gave an inhibition in vivo at 0.035 mg/kg ([1]; 2 h, 120 min) of 27%, an inhibition in vivo at 0.07 mg/kg ([1]; 2 h, 120 min) of 30% and an inhibition in vivo at 0.28 mg/kg ([1]; 2 h, 120 min) of 54%. For the same compound, the inhibition in vivo at 0.035 mg/kg ([1]; 3 h, 180 min) was 3%, the inhibition in vivo at 0.28 mg/kg ([1]; 3 h, 180 min) was 30% and the inhibition in vivo at 0.07 mg/kg ([1]; 4 h, 240 min) was 0%. For the same compound, the “Mean Maximal Increase in the Heart Rate” value ([2]; 0.17 mcg/kg (salt) i.v.) was 20%, the “Mean Maximal Increase in the Heart Rate” value ([2]; 0.35 mcg/kg (salt) i.v.) was 32% and the “Mean Maximal Increase in the Heart Rate” value ([2]; 0.7 mcg/kg (salt) i.v.) was 44%. For the same compound, the “need for stabilizing agent in solution” value [3] was “required to stabilize them”, the ED50 ([4]; carbachol (Doryl) 1:5 million) was 0.18 µg (base) and the “Duration, Mean” value ([4]; dose 0.32 mcg (base)) was 5 ± 1.4 min. For the same compound, the inhibition in vivo at 0.00017 mg/kg ([5]; 0.17 mcg/kg i.v.) was 22%, the inhibition in vivo at 0.00035 mg/kg ([5]; 0.35 mcg/kg i.v.) was 57% and the “Mean Decrease in Diastolic Blood Pressure” value (“Mean Decrease” for short) ([6]; 0.17 meg/kg (salt) i.v.) was 13%. The “Mean Decrease” value ([6]; 0.35 meg/kg (salt) i.v.) was 33% and the “Mean Decrease” value ([6]; 0.7 meg/kg (salt) i.v.) was 41%.
